This is an account of results in paper PMC7046148 (Scientific Reports, 2020).

Each structure is given as a SMILES string.

One series has as its target T1, human SALL4 (Homo sapiens, UniProt Q9UJQ4).
T1 construct: expressed in transfected cells; host or cells: Lenti-x 293 CRBN CRISPR KO (CRBN-/-) cells stably expressing human SALL4, transiently transfected with FLAG-CRBN variants
The experiment in a line: Immunoblot of SALL4 degradation in Lenti-x 293 CRBN-/- cells expressing human CRBN variants. Type of series: cell-based. The note with it: 20 µM thalidomide, 10 µM lenalidomide, 1 µM pomalidomide, 24 hours; relative to wild-type human CRBN.

A further series deals with T2, SALL4 (Homo sapiens, UniProt Q96SW2+Q9UJQ4).
T2 construct: Unmodified Gibco hiPSCs were either differentiated in APEL2 + GSKi or maintained in mTeSR1, and SALL4 nuclear protein expression was monitored; endogenous in cells; host or cells: Gibco hiPSCs; XCL-1 SALL4 mock hiPSC clone
T2 sequence (Q9UJQ4 whole entry): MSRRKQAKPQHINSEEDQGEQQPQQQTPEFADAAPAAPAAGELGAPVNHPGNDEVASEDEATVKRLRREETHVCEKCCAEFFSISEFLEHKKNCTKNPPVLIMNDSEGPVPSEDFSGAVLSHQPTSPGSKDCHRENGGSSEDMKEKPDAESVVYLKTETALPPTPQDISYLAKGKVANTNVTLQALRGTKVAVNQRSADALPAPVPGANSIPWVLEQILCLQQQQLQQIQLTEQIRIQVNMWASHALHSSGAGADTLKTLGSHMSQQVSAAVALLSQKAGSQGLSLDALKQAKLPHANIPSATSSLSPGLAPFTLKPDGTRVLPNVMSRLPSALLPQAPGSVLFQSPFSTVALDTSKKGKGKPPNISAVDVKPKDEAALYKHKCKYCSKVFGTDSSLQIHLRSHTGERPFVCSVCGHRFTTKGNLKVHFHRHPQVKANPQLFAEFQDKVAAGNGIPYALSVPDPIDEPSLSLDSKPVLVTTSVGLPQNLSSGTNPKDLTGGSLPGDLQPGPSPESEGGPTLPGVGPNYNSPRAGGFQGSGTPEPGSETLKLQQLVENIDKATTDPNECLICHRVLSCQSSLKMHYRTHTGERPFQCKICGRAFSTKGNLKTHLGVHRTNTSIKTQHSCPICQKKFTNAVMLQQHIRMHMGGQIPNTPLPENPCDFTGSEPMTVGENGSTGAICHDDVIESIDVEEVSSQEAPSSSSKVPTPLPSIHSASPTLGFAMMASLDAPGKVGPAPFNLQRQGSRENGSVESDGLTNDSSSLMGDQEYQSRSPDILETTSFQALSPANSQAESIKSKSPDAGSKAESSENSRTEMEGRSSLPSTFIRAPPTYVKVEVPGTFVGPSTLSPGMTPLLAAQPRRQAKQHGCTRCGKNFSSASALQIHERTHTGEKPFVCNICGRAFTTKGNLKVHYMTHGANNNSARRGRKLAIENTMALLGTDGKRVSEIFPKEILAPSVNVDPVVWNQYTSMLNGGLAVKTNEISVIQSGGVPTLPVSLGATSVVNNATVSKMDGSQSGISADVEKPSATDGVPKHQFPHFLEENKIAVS
T2 sequence (Q96SW2 whole entry): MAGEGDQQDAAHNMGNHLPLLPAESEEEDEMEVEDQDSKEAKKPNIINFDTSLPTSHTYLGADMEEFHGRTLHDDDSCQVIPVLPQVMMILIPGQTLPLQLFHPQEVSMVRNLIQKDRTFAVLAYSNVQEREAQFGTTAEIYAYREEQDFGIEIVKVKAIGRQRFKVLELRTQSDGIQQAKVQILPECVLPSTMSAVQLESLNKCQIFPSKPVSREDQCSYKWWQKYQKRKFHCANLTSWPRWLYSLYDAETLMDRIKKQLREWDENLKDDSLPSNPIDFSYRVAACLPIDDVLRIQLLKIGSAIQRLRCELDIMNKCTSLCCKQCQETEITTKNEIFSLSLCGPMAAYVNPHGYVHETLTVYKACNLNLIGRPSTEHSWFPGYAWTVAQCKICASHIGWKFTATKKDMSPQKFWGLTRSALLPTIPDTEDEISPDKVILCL
T2 sequence (Q16531 whole entry partner): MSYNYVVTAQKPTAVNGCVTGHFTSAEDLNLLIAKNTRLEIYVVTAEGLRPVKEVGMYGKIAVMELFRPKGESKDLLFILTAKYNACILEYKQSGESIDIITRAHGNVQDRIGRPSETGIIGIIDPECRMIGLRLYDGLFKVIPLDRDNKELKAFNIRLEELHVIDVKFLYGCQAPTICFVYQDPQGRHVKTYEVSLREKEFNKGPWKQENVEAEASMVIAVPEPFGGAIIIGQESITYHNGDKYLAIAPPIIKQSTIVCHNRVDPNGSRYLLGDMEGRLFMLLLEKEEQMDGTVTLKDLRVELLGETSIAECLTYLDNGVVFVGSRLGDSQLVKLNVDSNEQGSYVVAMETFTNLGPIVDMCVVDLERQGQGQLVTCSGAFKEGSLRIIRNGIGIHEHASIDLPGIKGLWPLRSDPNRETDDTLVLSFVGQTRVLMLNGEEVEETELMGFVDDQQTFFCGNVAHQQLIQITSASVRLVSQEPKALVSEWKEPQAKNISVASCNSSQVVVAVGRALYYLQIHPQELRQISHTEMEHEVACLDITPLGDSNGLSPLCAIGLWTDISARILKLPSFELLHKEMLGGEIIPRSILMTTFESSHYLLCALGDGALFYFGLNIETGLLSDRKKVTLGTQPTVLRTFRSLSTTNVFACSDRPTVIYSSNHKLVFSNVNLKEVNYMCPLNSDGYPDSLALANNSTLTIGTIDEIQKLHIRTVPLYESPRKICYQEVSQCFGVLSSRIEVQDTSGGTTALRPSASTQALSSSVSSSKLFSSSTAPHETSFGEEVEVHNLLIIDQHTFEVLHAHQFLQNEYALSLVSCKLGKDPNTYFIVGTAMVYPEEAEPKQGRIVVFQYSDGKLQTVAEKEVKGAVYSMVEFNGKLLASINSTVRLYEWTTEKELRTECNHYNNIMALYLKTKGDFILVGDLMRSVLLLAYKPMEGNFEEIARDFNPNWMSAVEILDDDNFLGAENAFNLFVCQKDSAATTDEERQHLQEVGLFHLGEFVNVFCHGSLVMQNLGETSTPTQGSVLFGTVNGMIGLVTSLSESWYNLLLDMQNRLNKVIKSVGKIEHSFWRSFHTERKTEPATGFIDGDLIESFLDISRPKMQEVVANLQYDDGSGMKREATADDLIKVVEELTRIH
The series is described as follows: SALL4 MFI by high content imaging, XCL-1 SALL4 mock hiPSCs. Type of series: cell-based. To be noted: SALL4 mock control hiPSCs, 8 h of treatment. The source says:
High content imaging analysis of SALL4 immunofluorescence with DAPI counterstaining in hiPSCs. […] Data represent the mean +/− SEM from 2 independent experiments.

Another series relates to Gibco hiPSCs. The experiment in a line: qRT-PCR characterization of LPM differentiation, Gibco hiPSCs in 2D. The class given is cell-based, human. The note with it: 20 µM thalidomide, 2 d in APEL2+GSKi; for effect on marker gene expression during LPM differentiation (words): 2D. As for the experimental part:
The TaqMan hPSC Scorecard Assay (Thermo Fisher) was used to assess the pluripotency of cultured Gibco hiPSCs and the XCL-1 hiPSC clones as described. The assay outputs scores for self-renewal, ectoderm, endoderm, and mesoderm genes.
Gibco hiPSCs were seeded in small clumps at ~10% confluence on Matrigel-coated dishes and were cultured for 1 d in mTeSR-1. On the following day after seeding, the medium was switched to APEL2 basal medium (Stem Cell Technologies) supplemented with 5 µM CHIR99021 (Stem Cell Technologies) (hereafter referred to as APEL2 + GSKi). hiPSCs were cultured for the described duration in APEL2 + GSKi and were characterized by qRT-PCR and immunofluorescence. Briefly, RNA was extracted using buffer RLT supplemented with 1% β-mercaptoethanol and purified from hiPSCs using RNeasy kit (Qiagen) with optional DNase step. Reverse transcription was carried out using the high capacity cDNA reverse transcription kit (ThermoFisher). cDNA was characterized using Qubit HS dsDNA kit (Invitrogen), and qRT-PCR was carried out using TaqMan primer/probes (Thermo Fisher) and fast advanced master mix (Thermo Fisher) per manufacturer’s instructions on either the Viia7 or QuantStudio 5 (Thermo Fisher). Assay results were normalized to ACTB housekeeping control and the undifferentiated control (day 0) via the 2^−ΔΔCT method. The capacity of Gibco hiPSCs and XCL-1 hiPSCs to undergo LPM differentiation was also assessed using qRT-PCR for markers of pluripotency (NANOG, POU5F1), primitive streak (T, SOX17), LPM (FOXF1, GATA4), and limb mesenchyme (PITX1, TBX5).
Data represent the mean ± log2 fold change, normalized to the ACTB control and the DMSO control via the 2^−ΔΔCT method, relative to DMSO control from 4 independent experiments. Asterisks denote statistical significance via 2-tailed Student’s t-test relative to a nominal mean log2 fold change of ‘0’ (α = 0.05). PS = primitive streak; LPM = lateral plate mesoderm.
Legend for Supplementary Tables 1-3
Supplementary tables 1-3 contain qRT-PCR data obtained using the Taqman hPSC Scorecard Assay (Thermo Fisher).Lysates of Gibco and XCL-1 hiPSCs were purified to RNA using RNeasy procedure (Qiagen). Reverse transcription was performed using the cDNA high capacity reverse transcription kit(Invitrogen). dsDNA content was calculated using Qubit dsDNA HS kit(Invitrogen). cDNA was loaded into hPSC pluripotency panel pre-loaded 384 well plates, and plates were run on Viia7 using standard curve method. The hPSC scorecard analysis software (Thermo Fisher) was used to calculate the relative gene expression scores forself-renewal genes, ectoderm genes, endoderm genes, and mesoderm genes. Scores are provided from pooled lysates from replicate wells ofa single experiment. Cells were cultured as described herein. […]
A general note: In qPCR the cycle at which signal appears reflects the starting amount.

Series [1] relates to mouse embryonic stem cells. The note with it: cited from earlier work.
The subject of the next series is XCL-1 hiPSC SALL4^G416A. The experiment in a line: cells. Type of series: cell-based. To be noted: Homo sapiens, 72 h; XCL-1 SALL4^G416A; 3 d differentiation; read-out: IC50 (±SEM) in SOX17 differentiation assay. As for the experimental part: (§1) The assay was carried out as previously described with continuous dosing of chemical for 3 total days of differentiation. SOX17 staining and DAPI counter-staining were carried out as described, and assays were imaged via high content imaging. […]
(§2) Supplementary Figure 7. Dose-response characterization of the influence […]
(§3) of XCL-1 clones. High content imaging analysis of XCL-1 hiPSC clones that were differentiated for 3 days in the presence of compound and subsequently stained for SOX17 and counter-stained with DAPI. Untreated DMSO control is omitted. Data represent the mean +/- SEM %SOX17 cells
(§4) (relative to control) from 4 independent experiments. Nonlinear regression […]
(§5) variable slope plotting tool in GraphPad Prism. A-C: Dose-response […]
(§6) in cereblon mock (hollow circles) or CRBN KO/KI (red filled circles) clones. D- […]

The next series concerns XCL-1 hiPSC CRBN Mock. The series is described as follows: cells. The class given is cell-based. To be noted: Homo sapiens, 72 h; XCL-1 CRBN Mock; 3 d differentiation; read-out: IC50 (±SEM) in SOX17 differentiation assay. As for the experimental part: as §1, §2, §3, §4, §5, §6
The next series has as its system XCL-1 hiPSC SALL4 Mock. The experiment in a line: cells. The note with it: Homo sapiens, 72 h; XCL-1 SALL4 Mock; 3 d differentiation; read-out: IC50 (±SEM) in SOX17 differentiation assay. Type of series: cell-based. The procedure: as §1, §2, §3, §4, §5, §6
For a further series, the system named is XCL-1 hiPSC CRBN KO/KI. The series is described as follows: cells. The class given is cell-based. The note with it: Homo sapiens, 72 h; XCL-1 CRBN KO/KI; 3 d differentiation; read-out: IC50 (±SEM) in SOX17 differentiation assay. The procedure: as §1, §2, §3, §4, §5, §6
A further series deals with hPSC. Details: method as in PMID 24154490. To be noted: cited from earlier work.

T1 sequence (Q96SW2 whole entry partner): as the sequence (Q96SW2 whole entry) above
T1 sequence (Q16531 whole entry partner): as the sequence (Q16531 whole entry partner) above
T1 sequence (Q9UJQ4 whole entry): as the sequence (Q9UJQ4 whole entry) above
Excerpt for human SALL4: SALL4 were transiently transfected with vectors expressing GFP or human CRBN variants and treated with
CRBN-/- cells transfected with empty vector were used as a negative control. The cells were then lysed and
characterized by immunoblotting analysis for SALL4, ZFP91, GFP, CRBN, and β-actin.
CRBN CRISPR KO (CRBN -/-) cells were maintained in Dulbecco’s Modified Eagle’s medium (DMEM;
Invitrogen) supplemented with 10% fetal bovine serum (FBS; Invitrogen). All cell lines were confirmed
mycoplasma-negative using the MycoAlert Mycoplasma Detection Kit (Lonza).
CRBN-/- cells stably expressing human SALL4 was transiently transfected with 4 µg of pcDNA3-GFP, pcDNA3-
FLAG-CRBN WT (isoform 1),pcDNA3-FLAG-CRBN E377V (isoform 1) or pcDNA3-FLAG-CRBN V388I (isoform
Cells were then harvested and lysed, and
whole cell extract was subjected to immunoblotting analysis. Cells were washed with ice-cold 1X PBS and
lysed in 50mM Tris-HCl [pH 7.6], 150 mM NaCl, 1% Triton X-100, and 1x Complete ULTRA protease inhibitor
cocktail and PhosSTOP phosphatase inhibitor cocktail. Whole cell extracts were collected after
centrifugation at top speed for 10 minutes, resolved by sodium dodecyl sulfate polyacrylamide gel
electrophoresis, transferred onto a nitrocellulose membrane using the Turboblot system (Bio-Rad), and
probed with the indicated primary antibodies. Bound antibodies were detected with IRDye®-680 or -800 […]

Regarding `O=C1CCC(N2C(=O)c3ccccc3C2=O)C(=O)N1` (stereo not drawn) [Thalidomide, thalidomide], the “SALL4 degradation in human cells expressing CRBN with the V388I mutation” value at human SALL4 is “failed to induce SALL4 degradation”. The “effect on SALL4 MFI” value on SALL4 was “potently reduced SALL4 MFI”. In addition, the “effect on marker gene expression during LPM differentiation (words)” value was “did not affect expression of the other measured markers” in the series on Gibco hiPSCs; “significantly reduced the expression of both FOXF1 and SOX17” in the series with Gibco hiPSCs (listed as thalidomide). In the series on Gibco hiPSCs (hPSC Scorecard panel), the “reduction of FOXF1 expression” value is recorded as ~ 60%. The “reduction of SOX17 expression” value in the series on Gibco hiPSCs (hPSC Scorecard panel) was > 95%. Further, in series [1], the “concentration for nonspecific toxicity in the mEST” value is given as “above 400 µM”. For the same molecule, the IC50 with XCL-1 hiPSC SALL4^G416A was > 50 µM; in the series on XCL-1 hiPSC CRBN Mock, 1.9 ± 2.3 µM; in the series with XCL-1 hiPSC SALL4 Mock it was 1.8 ± 2.6 µM; with XCL-1 hiPSC CRBN KO/KI, > 50 µM. For the same molecule, the “non-cytotoxic concentrations at which the definitive endoderm assay was sensitive” value in the series with hPSC was “below 1 µM”.

Broadly, the IC50 is the midpoint of a concentration-inhibition curve.
